How the values were obtained:
[1] = system: VEC/SMC-HCM insert (HUVEC / HUASMC vascular wall model); settings: histamine 10 μM or 100 μM, incubated 120 minutes, FIG. 10
Procedure: • (1) 2 mg of FITC-dextran 70 (70 kDa, Sigma) was dissolved in 8 ml of HBSS (+) (084-08965, Wako), to prepare a 250 μg/ml FITC-dextran 70 solution. The FITC-dextran 70 solution was stored in a light-shielded condition. […] The 96-well black plate was light-shielded by being covered with an aluminum sheet. • (9) The fluorescent intensity of the FITC in each sample liquid was measured using a plate reader (ENSPIRE, PerkinElmer) with an excitation wavelength (Ex) of 485 nm and an emission wavelength (Em) of 530 nm.

[2] = system: cell layered body of rat vascular endothelial cells and rat smooth muscle cells on HCM; assay: Evaluation of response to physiologically active substance (thrombin) by microscopy of the cell layered body; assay type: cell-based; settings: 37° C., 30 minutes
Procedure: • (1) 0.1 mg (100 units) of thrombin (#T7009-100UN, Sigma) was dissolved in 100 μl of physiological saline to prepare a thrombin solution at a concentration of 1000 U/mL. […] The micrograph of the cell layered body is shown in FIG. 12, which is a superposed image of red fluorescence from VE-cadherin and green fluorescence from α-smooth muscle actin.

| Molecule | FITC-dextran 70 permeability [1] | cell contraction observed under a microscope ([2]; 25 U/mL or 100 U/mL thrombin, FIG. 12) | concentration dependence of cell contraction ([2]; 25 U/mL vs 100 U/mL thrombin) |
| --- | --- | --- | --- |
| NCCc1c[nH]cn1 [histamine, Histamine] | increase in FITC-dextran 70 permeability depending on the concentration of histamine | – | – |
| thrombin | – | cell contraction due to activation of actin stress fibers caused by the addition of thrombin was observed | Higher thrombin concentrations caused stronger cell contractions |

Source: patent US12313625B2, “Living tissue model device, vascular wall model, vascular wall model device and method of evaluating test substance” (FUJIFILM CORPORATION, priority 2017, dated 2025)
